Experiment in all cases: biochemical
In experiment [1] the target is T1, Muscarinic acetylcholine receptor M1 (Homo sapiens, UniProt P11229).
T1 sequence (P11229 whole entry): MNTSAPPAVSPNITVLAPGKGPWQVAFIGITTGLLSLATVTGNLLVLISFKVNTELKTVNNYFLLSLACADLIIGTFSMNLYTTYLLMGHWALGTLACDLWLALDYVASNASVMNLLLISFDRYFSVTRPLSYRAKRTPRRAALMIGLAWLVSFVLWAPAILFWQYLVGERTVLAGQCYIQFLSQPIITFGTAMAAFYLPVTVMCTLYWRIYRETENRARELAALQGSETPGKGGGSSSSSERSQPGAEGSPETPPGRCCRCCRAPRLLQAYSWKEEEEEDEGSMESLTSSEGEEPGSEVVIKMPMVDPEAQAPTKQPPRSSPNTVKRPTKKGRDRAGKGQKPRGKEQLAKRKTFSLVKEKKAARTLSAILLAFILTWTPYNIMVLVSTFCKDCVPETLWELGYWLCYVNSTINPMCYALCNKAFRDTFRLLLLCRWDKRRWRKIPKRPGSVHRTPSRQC

For experiment [2], the target named is T2, Muscarinic acetylcholine receptor M2 (Homo sapiens, UniProt P08172).
T2 sequence (P08172 whole entry): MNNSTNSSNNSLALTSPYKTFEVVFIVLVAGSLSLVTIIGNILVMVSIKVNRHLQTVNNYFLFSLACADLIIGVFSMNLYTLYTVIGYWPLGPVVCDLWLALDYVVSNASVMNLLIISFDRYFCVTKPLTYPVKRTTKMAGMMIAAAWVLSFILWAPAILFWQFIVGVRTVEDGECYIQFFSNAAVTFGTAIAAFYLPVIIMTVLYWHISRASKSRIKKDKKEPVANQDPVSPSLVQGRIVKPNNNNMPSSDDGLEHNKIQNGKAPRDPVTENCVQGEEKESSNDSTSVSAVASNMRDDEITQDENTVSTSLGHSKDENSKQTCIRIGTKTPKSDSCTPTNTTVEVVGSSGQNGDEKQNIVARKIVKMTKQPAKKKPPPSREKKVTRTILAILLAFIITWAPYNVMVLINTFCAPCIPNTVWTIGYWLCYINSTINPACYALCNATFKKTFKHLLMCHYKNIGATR

In experiment [3] the target is T3, Muscarinic acetylcholine receptor M5 (Homo sapiens, UniProt P08912).
T3 sequence (P08912 whole entry): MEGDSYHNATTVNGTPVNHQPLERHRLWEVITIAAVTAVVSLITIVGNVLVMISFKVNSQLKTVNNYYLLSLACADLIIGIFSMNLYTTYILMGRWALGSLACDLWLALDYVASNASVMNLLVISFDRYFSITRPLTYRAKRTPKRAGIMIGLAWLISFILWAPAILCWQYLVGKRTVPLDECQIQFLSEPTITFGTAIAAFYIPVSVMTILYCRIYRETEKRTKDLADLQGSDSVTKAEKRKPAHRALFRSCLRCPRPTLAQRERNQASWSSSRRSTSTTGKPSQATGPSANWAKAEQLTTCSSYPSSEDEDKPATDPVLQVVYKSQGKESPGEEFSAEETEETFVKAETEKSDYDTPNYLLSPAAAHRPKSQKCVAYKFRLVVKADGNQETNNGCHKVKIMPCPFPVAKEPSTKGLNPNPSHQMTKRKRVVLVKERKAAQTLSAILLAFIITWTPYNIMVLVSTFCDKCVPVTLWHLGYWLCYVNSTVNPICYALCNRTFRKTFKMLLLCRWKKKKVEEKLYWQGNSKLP
Description: Binding affinity to human cloned muscarinic M5 receptor expressed in CHO cells

Structures are written as SMILES.

With `C[C@H]1OC[C@@H](C[N+](C)(C)C)O1`, the Ki in experiment [1] was 11 µM; in experiment [2], 1.2 µM; in experiment [3], 21.9 µM.

Take `Cc1nccn1CC#CCOc1ccon1`: the Ki in experiment [1] is 0.0912 µM; in experiment [2] it was 0.00363 µM; in experiment [3], 0.00617 µM.

Turning to `C[C@@H]1O[C@H]([C@H]2CCC[N+]2(C)C)CS1`, the Ki is 19.1 µM in experiment [1], 5.25 µM in experiment [2] and 24.5 µM in experiment [3].

With `C[C@@H]1O[C@H]([C@@H]2CCC[N+]2(C)C)CS1`, the Ki was 14.1 µM in experiment [1], 3.55 µM in experiment [2] and 23.4 µM in experiment [3].

On to `C[C@H]1O[C@@H]([C@H]2CCC[N+]2(C)C)CS1`, for which the Ki in experiment [1] is 5.89 µM; in experiment [2], 1.41 µM; in experiment [3], 10.7 µM.

Regarding `C[C@H]1OC[C@@H]([C@H]2CCC[N+]2(C)C)O1`, the figures for the Ki in experiment [1], in experiment [2] and in experiment [3] were 52.5 µM, 5.01 µM and 52.5 µM, respectively.

In the case of `C[C@H]1O[C@@H]([C@@H]2CCC[N+]2(C)C)CS1`, the Ki in experiment [1] was 8.32 µM; in experiment [2], 0.676 µM; in experiment [3], 10.2 µM.

For `C[C@H]1COC[C@@H](C[N+](C)(C)C)O1`, the Ki in experiment [2] is 37.2 µM; in experiment [3], 3.72 µM.

Consider `CC(=O)OC1CC2CCCC1N2C` (configuration not stated), for which the Ki in experiment [1] was 282 µM; in experiment [2], 2.75 µM.

On to `C[C@@H]1O[C@H](C[N+](C)(C)C)CS1`, for which the Ki was 11 µM in experiment [1], 2.09 µM in experiment [2] and 13.2 µM in experiment [3].

On to `C[C@H]1OC[C@@H]([C@@H]2CCC[N+]2(C)C)O1`, for which the Ki was 21.4 µM in experiment [1], 1.7 µM in experiment [2] and 22.9 µM in experiment [3].

`C[C@H]1O[C@@H]([C@@H]2CCC[N+]2(C)C)C[S+]1[O-]` (some centres not stated) showed a Ki in experiment [2] of 77.6 µM.

With `CC(=O)OC1CC2CCCC1N2` (configuration not stated), the values for the Ki in experiment [1] and in experiment [2] were 21.4 µM and 0.00263 µM, respectively.

Turning to `Cc1nccn1CC#CCN1CCCC1=O`, the Ki is 0.12 µM in experiment [1], 0.102 µM in experiment [2] and 0.0513 µM in experiment [3].

`C[C@@H]1O[C@H]([C@@H]2CCC[N+]2(C)C)C[S+]1[O-]` (stereo in doubt; 9) had a Ki in experiment [2] of 9.33 µM.

In the case of `C[C@@H]1O[C@H]([C@@H]2CCC[N+]2(C)C)C[S+]1[O-]` (stereo in doubt; 11), the Ki in experiment [1] is 93.3 µM; in experiment [2], 15.5 µM; in experiment [3], 33.9 µM.

On to `C[C@@H]1O[C@H]([C@@H]2CCC[N+]2(C)C)C[S+]1[O-]` (stereo in doubt; 12), for which the Ki in experiment [2] was 81.3 µM; in experiment [3], 57.5 µM.

For `CO/N=C/C1=CCCN(C)C1` [MILAMELINE], the Ki in experiment [1] was 5.62 µM; in experiment [2] it was 1 µM; in experiment [3], 3.16 µM.

With `C[N+](C)(C)CC#CCN1CCCC1=O` [OXOTREMORINE METHIODIDE], the Ki in experiment [1] was 20.4 µM; in experiment [2], 0.107 µM.

As to `O=C1CCCN1CC#CCN1CCCC1` [OXOTREMORINE], the results for the Ki in experiment [1] and in experiment [2] were 0.00112 µM and 0.324 µM, respectively.

Regarding `CO/N=C(\C#N)[C@H]1CN2CCC1CC2` [SABCOMELINE], the values for the Ki in experiment [1] and in experiment [2] were 0.229 µM and 0.204 µM, respectively.

The record behind these values is ChEMBL document CHEMBL1143946, “Docking analyses on human muscarinic receptors: unveiling the subtypes peculiarities in agonists binding” (Bioorg Med Chem, 2008).
